Assay results: patent US5955572A, “Structural mimics of RGD-binding sites” (La Jolla Cancer Research Foundation, priority 1998, dated 1999)
Where a SMILES comes first, the peptide text is derived from it. Bridges are numbered along the chain shown (N, C = ends).

Target: T1, β3 (109-133) peptide (Homo sapiens, UniProt P05106)
T1 construct: made in house; host or cells: chemical synthesis
T1 sequence (P05106 135-159 limits assumed): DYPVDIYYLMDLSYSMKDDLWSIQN
Test: RGD-phage binding to peptides from the β3 integrin subunit
Conditions: titration experiments (not shown); read-out: concentration giving 50% inhibition of RGD-binding to β3 (109-133)

IC50: ~1 µM
Structure (SMILES): CC(C)C[C@@H]1NC(=O)[C@H](Cc2c[nH]c3ccccc23)NC(=O)CNC(=O)[C@H](CC(=O)O)NC(=O)[C@H](CC(=O)O)NC(=O)[C@H](Cc2c[nH]c3ccccc23)NC(=O)[C@@H](N)CSSC[C@@H](C(=O)O)NC1=O (H-CWDDGWLC-OH; disulfide 1-8)
